Measurements reported in BindingDB's records for doi:10.1021/bi8010362 (Kyoto University, 2008).

Target: NADH-ubiquinone oxidoreductase chain 1 (Bos taurus, UniProt P03887)
Test: Inhibition Assay
Text: Inhibition assay using NADH-ubiquinone oxidoreductase (complex I).

NADH-ubiquinone oxidoreductase chain 1, sequence (P03887 whole entry): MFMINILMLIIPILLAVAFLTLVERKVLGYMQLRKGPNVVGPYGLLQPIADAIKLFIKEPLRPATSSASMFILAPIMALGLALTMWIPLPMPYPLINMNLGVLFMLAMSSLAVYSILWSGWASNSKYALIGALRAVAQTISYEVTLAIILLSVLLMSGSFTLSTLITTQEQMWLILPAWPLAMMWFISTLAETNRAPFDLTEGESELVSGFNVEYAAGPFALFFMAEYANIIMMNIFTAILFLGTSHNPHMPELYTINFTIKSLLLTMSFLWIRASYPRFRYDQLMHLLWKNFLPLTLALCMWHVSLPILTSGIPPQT

Row | IC50 [nM] | SMILES
1 | 4700 | C[N+]1(C[C@H](O)CCCCCc2ccccc2)CC[N+](C)(C[C@H](O)CCCCCc2ccccc2)CC1 (some centres undefined) [Piperazine derivative, 23]
2 | 26 | CCCCCCCCCCCCCCC(O)CN1CCN(CC(O)CCCCCC)CC1 (centres undefined) [Piperazine derivative, 6]
3 | > 22000 | CCCCCC(O)CN1CCN(CC(O)CCCCC)CC1 (centres undefined) [Piperazine derivative, 4]
4 | 12 | c1ccc(CCCCCCCN2CCN(CCCCCCCc3ccccc3)CC2)cc1 [Piperazine derivative, 18]
5 | 2.8 | O[C@H](CCCCCCCc1ccccc1)CN1C[C@H]2C[C@@H]1CN2C[C@H](O)CCCCCCCc1ccccc1 [Piperazine derivative, 14]
6 | 1.7 | O[C@H](CCCCCCCc1ccccc1)CN1CCCN(C[C@H](O)CCCCCCCc2ccccc2)CC1 [Piperazine derivative, 13]
7 | 1300 | c1ccc(CCCCN2CCN(CCCCc3ccccc3)CC2)cc1 [Piperazine derivative, 21]
8 | 3.6 | c1ccc(CCCCCCCCCN2CCN(CCCCCCCCCc3ccccc3)CC2)cc1 [Piperazine derivative, 20]
9 | 1.2 | O[C@H](CCCCCCCc1ccccc1)CN1CCN(C[C@H](O)CCCCCCCc2ccccc2)CC1 [Piperazine derivative, 10]
10 | 1 | N#[N+]Nc1c(F)c(F)c(COCCCCC[C@@H](O)CN2CCN(C[C@H](O)CCCCCOc3ccc(I)cc3)CC2)c(F)c1F [Piperazine derivative, 24]
11 | 5.9 | O[C@H](CCCCCCCCCc1ccccc1)CN1CCN(C[C@H](O)CCCCCCCCCc2ccccc2)CC1 [Piperazine derivative, 11]
12 | 670 | CN(C[C@H](O)CCCCCCCc1ccccc1)[C@H]1CCCC[C@@H]1N(C)C[C@H](O)CCCCCCCc1ccccc1 [Piperazine derivative, 15]
13 | 2.6 | CCCCCCCCCCC(O)CN1CCN(CC(O)CCCCCCCCCC)CC1 (centres undefined) [Piperazine derivative, 5]
14 | 2.2 | c1ccc(CCCCCCCCN2CCN(CCCCCCCCc3ccccc3)CC2)cc1 [Piperazine derivative, 19]
15 | 12 | O[C@H](CCCCCc1ccccc1)CN1CCN(C[C@H](O)CCCCCc2ccccc2)CC1 [Piperazine derivative, 8]
16 | 110 | CCCCCCCCCCCCCCCCC(O)CN1CCN(CC(O)CCCC)CC1 (centres undefined) [Piperazine derivative, 7]
17 | 1100 | C[N+]1(C[C@H](O)CCCCCc2ccccc2)CCN(C[C@H](O)CCCCCc2ccccc2)CC1 [Piperazine derivative, 22]
18 | 1.7 | O[C@H](CCCCCCc1ccccc1)CN1CCN(C[C@H](O)CCCCCCc2ccccc2)CC1 [Piperazine derivative, 9]
19 | 2.3 | O[C@@H](CCCCCCc1ccccc1)CN1CCN(C[C@@H](O)CCCCCCc2ccccc2)CC1 [Piperazine derivative, 12]
